Where two headings read alike, the source gives them in different places.
Key:
[1] = Particle size distribution (PSD) of suspensions before/after microfluidization (Mastersizer); type: physicochemical; settings: 5,000 psi, 3 passes
Source text: The Microfluidizer M-210 EH operates at higher pressures up to 35000 psi. The process stream enters the inlet reservoir. An air-powered intensifier pumping system accelerates the process stream, propelling into a processing zone called the interaction chamber. This chamber consists of microchannels, where the process stream separates into two. It changes direction and collides into a single stream again. […] Then product is accelerated to a high velocity and is subjected to shear, impact and cavitation. This causes particles and droplets to reduce in size as small as sub-micron depending upon the processing pressure and number of cycles applied. […] After completion of the microfluidization step, the sized particles in suspension pass through pipe 18 out of the system, with a heat exchanger 20 shown in a preferred system to enable on-line drying of the micro-suspension resulting from the microfluidization. The microfluidization process is most conveniently practiced with operating pressures between 2000 pounds per square inch (psi) and 20,000 psi to provide resulting particle sizes of the dimensions most appropriate for pharmaceutical dosing. The process will often progress with increasingly higher operating pressures in each subsequent pass, such as using from 2,000 to 6,000 psi in a first pass, 5,000 to 11,000 psi in a second pass, and from 9,000 to 20,000 psi in a third pass (if needed). Each pass will generally be higher than a previous pass, or operating pressures may remain constant or decrease, depending upon the specific results desired in the processing.

[2] = cited from earlier work
[3] = micronized drug + Klucel LF + micronized β-cyclodextrin + Cremophor RH-40 + water
[4] = micronized drug + Klucel LF + unmicronized β-cyclodextrin + Cremophor RH-40 + water

CCc1cccc2c3c([nH]c12)C(CC)(CC(=O)O)OCC3 (stereo not drawn) [Etodolac, etodolac]
solubility (pH 1): 0.001% | solubility (pH 5): 0.01% | PSD of Output Material After Processing, d (0.9) [1, 3]: 12.15 μm

CCOC(=O)C1=C(C)NC(C)=C(C(=O)OC)C1c1cccc(Cl)c1Cl (stereo not drawn) [Felodipine, felodipine]
absorption from the colon [2]: impaired absorption from the colon

Cc1cnc(C(=O)NCCc2ccc(S(=O)(=O)NC(=O)NC3CCCCC3)cc2)cn1 [Glipizide, glipizide]
PSD of Output Material After Processing, d (0.5) [1, 3]: 5.72 μm | PSD of Output Material After Processing, d (0.9) [1, 3]: 12.06 μm | PSD of Output Material After Processing, d (0.5) [1, 4]: 3.84 μm | PSD of Output Material After Processing, d (0.9) [1, 4]: 7.52 μm

CCOC(=O)C1=C(C)NC(C)=C(C(=O)OC)C1c1cccc([N+](=O)[O-])c1 (stereo not drawn) [nitrendipine]
absorption from the colon [2]: impaired absorption from the colon

From patent US6555139B2, “Preparation of micron-size pharmaceutical particles by microfluidization” (Wockhardt Europe Limited, priority 1999, dated 2003)
